Measured values reported in patent publication US20230127046A1, “G9a INHIBITOR” (RIKEN, priority 2019, published 2023).
Where two headings read alike, the source gives them in different places.

Experiments:
[1] = target: T1, recombinant human G9a protein (Homo sapiens, UniProt Q96KQ7); test: G9a inhibitory activity test (ALPHA); type: biochemical
T1 construct: purchased BPS Bioscience Inc. #51001
T1 sequence (Q96KQ7 785-1210 limits assumed): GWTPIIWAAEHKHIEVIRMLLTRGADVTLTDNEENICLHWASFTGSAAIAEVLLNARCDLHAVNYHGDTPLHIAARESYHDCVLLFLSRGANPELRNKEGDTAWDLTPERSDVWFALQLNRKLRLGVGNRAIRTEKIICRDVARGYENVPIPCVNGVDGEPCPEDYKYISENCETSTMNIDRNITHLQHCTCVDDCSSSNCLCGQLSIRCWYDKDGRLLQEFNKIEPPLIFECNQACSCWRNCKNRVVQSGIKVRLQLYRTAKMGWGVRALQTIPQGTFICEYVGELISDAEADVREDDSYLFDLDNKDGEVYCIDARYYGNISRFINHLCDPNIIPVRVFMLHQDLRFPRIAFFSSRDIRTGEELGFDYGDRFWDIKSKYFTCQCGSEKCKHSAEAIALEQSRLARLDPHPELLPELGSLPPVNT
Outline: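 Human G9a (0.05 to 0.1 nM) in Tris pH 9.0 buffer preincubated with compound 10 min, then biotinylated histone H3 (1-21) peptide and SAM mixed 1:1 from 500 nM and 150 μM solutions, 1 h at room temperature. H3K9me2 detected by AlphaLISA acceptor/streptavidin donor beads; IC50 from percent inhibition relative to no-compound and no-enzyme controls.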

[2] = system: intracellular histone H3K9 dimethylation level in human lung cancer cell line NCI-H460; test: Histone H3K9 dimethylation inhibitory activity test (Western blotting); type: cell-based; conditions: NCI-H460 cells, 72 hours
Experimental: The inhibitory activity of each compound against G9a was evaluated by adding the compound to a human lung cancer cell line NCI-H460, and detecting change in intracellular histone H3K9 dimethylation level by Western blotting. The NCI-H460 cells were cultured in a DMEM medium (FUJIFILM Wako Pure Chemical Corp., 044-29765) containing 10% fetal bovine serum and 4 mM glutamine. The cultured cells were washed with PBS and then detached with trypsin/EDTA, and the cell suspension was adjusted to 2.5×10^4 cells/mL. The cell suspension was inoculated at 500 μL/well to a 24-well microplate (Thermo Fisher Scientific, Inc., 142475) and cultured overnight under conditions of 37° C. and 5% CO2. On the next day, the test compound (solution in DMSO) was added at 0.5 µL/well and reacted for 72 hours under conditions of 37° C. and 5% CO2. DMSO was added at 0.5 μL/well to control wells (final DMSO concentration: 0.1%). The medium was removed, and the cells were washed with PBS. Then, a 2×SDS-PAGE sample buffer (100 mM Tris-HCl (pH 6.8), 4% sodium lauryl sulfate, 2% 2-mercaptoethanol, 20% glycerol, 0.005% bromophenol blue) was added at 50 μL/well to prepare a sample. The recovered sample was heated at 95 to 100° C. for 10 minutes, and protein was separated by polyacrylamide gel electrophoresis (SDS-PAGE). Subsequently, the separated protein was transferred to a polyvinylidene fluoride (PVDF) membrane by semi-dry blotting. The PVDF membrane was dipped in 3% skimmed milk (dissolved in PBS containing 0.05% Tween 20 (PBST)), blocked at room temperature for 30 to 60 minutes, then dipped in an anti-dimethylated histone H3K9 antibody (Abcam plc, ab1220) diluted 1000-fold with 3% skimmed milk, and reacted overnight at 4° C. On the next day, the PVDF membrane was washed three times with PBST, then dipped in a HRP (horseradish peroxidase)-labeled anti-mouse IgG antibody diluted 10000-fold with skimmed milk, and reacted at room temperature for 1 hour. The PVDF membrane was washed three times with PBST, then dipped in chemiluminescent substrate solution Immobilon Western Chemiluminescent HRP Substrate (Merck Millipore, WBKLS0500), incubated at room temperature for 5 minutes, and photographed with Lumino Image Analyzer (GE Healthcare Japan Corp., ImageQuant LAS4000).
Then, the antibody was stripped from the PVDF membrane using re-probe reagent EzReprobe (ATTO Corp., WSE-7240), and trimethylated histone H3K9 and histone H3 were detected by the same procedures as above. An anti-trimethyl histone H3K9 antibody (39161, diluted 1000-fold) from Active Motif, Inc. and an anti-histone H3 antibody (ab1791, diluted 2000-fold) from Abcam plc were used in the detection. The band of each protein was quantified from the taken image using image processing software ImageJ (NIH). The ratios of dimethylated histone H3K9 and trimethylated histone H3K9 to the histone H3 protein were calculated with the numeric value of a compound-unsupplemented sample defined as 100%. A compound concentration at which the ratio of dimethylated histone H3K9 was 50% was calculated as a 50% inhibition concentration (IC50 value) using data analysis software Origin (LightStone Corp.).

[3] = system: human lung cancer cell line NCI-H460; test: Colony formation inhibition test; type: cell-based; conditions: 288 h, NCI-H460 cells, culture for 12 days, read-out: Inhibitory activity (colony formation GI50)
Experimental: Each compound was evaluated for its colony formation inhibitory activity against a human lung cancer cell line NCI-H460. The NCI-H460 cells were cultured in a DMEM medium (FUJIFILM Wako Pure Chemical Corp., 044-29765) containing 10% fetal bovine serum and 4 mM glutamine. The cultured cells were washed with PBS, then detached with trypsin/EDTA, and adjusted to 2×10^3 cells/mL to prepare a cell suspension. The cell suspension was inoculated at 1 mL/well to a 12-well microplate (Corning Inc., 3513), and the test compound (DMSO solution) was added at 1 μL/well, followed by culture for 12 days under conditions of 37° C. and 5% CO2. DMSO was added at 1 μL/well to control wells with a final DMSO concentration set to 0.1%. The medium was discarded every day or every two days, and a fresh medium was added at 1 mL/well. The test compound or DMSO was added at 1 μL/well. The proportion of a colony of each well was measured using a high-speed cell imaging system (Tomy Digital Biology Co., Ltd., Celigo). The ratio of the colony in each compound-supplemented group was determined with the ratio of the colony formed in a test compound solution-unsupplemented well defined as 1. A compound concentration necessary for suppressing the rate of colony formation by 50% of the control (GI50) was calculated using data analysis software Origin (LightStone Crop.).

[4] = biotinylated histone H3 peptide (1-21), SAM, read-out: Inhibitory activity (G9a IC50 value)
[5] = read-out: Inhibitory activity (G9a IC50)

Compound | IC50 [1, 4] [nM] | IC50 [2] [nM] | GI50 [3] [nM] | IC50 [1, 5] [nM]
Cc1c(C(=O)NC(CCC2CC2)C(=O)NC2CCN(C)CC2)[nH]c2c1C(=O)CC(C)(C)C2 (stereo not drawn) [Example 1-68] | ≥ 200 | 50 to 500 | ≥ 1000 | –
Cc1c(C(=O)NC(CCC2CC2)C(=O)Nc2ccc(C#N)cc2)[nH]c2c1C(=O)CC(C)(C)C2 (stereo not drawn) [Example 1-79] | 50 to 200 | < 50 | < 500 | –
Cc1ccc(NC(=O)C(CCC2CC2)NC(=O)c2[nH]c3c(c2C)C(=O)CC(C)(C)C3)cn1 (stereo not drawn) [Example 1-80] | ≥ 200 | 50 to 500 | 500 to 1000 | –
Cc1c(C(=O)NC(CCC2CC2)C(=O)N2CCc3ccccc32)[nH]c2c1C(=O)CC(C)(C)C2 (stereo not drawn) [Example 1-81] | 50 to 200 | 50 to 500 | < 500 | –
CCCCNC(=O)C(CCC1CC1)NC(=O)c1[nH]c2c(c1C)C(=O)CC(C)(C)C2 (stereo not drawn) [Example 1-82] | 50 to 200 | < 50 | ≥ 1000 | –
O=C(Cc1ccccc1)NC(CCC1CC1)C(=O)Nc1ccc(OC2COC2)nc1 (stereo not drawn) [Example 1-87] | 50 to 200 | 50 to 500 | ≥ 1000 | –
CCCC[C@H](NC(=O)c1[nH]c2c(c1C)C(=O)CC(C)(C)C2)C(=O)N[C@@H](C)c1ccccc1 [Example 2-1, 3,6,6-trimethyl-4-oxo-N-((S)-1-oxo-1-(((S)-1-phenylethyl)amino)hexan-2-yl)-4,5,6,7-tetrahydro-1H-indole-2-carboxamide] | – | < 50 | 500 to 1000 | 50 to 200
Cc1ccc(NC(=O)[C@H](CCC2CC2)NC(=O)c2[nH]c3c(c2C)C(=O)CC(C)(C)C3)cn1 [Example 6-10] | – | 50 to 500 | 500 to 1000 | < 50
Cc1c(C(=O)NC(CCC2CC2)C(=O)Nc2ccccc2)[nH]c2c1C(=O)CC(C)(C)C2 (stereo not drawn) [Example 6-17] | – | < 50 | 500 to 1000 | 50 to 200
Cc1c(C(=O)N[C@@H](CCC2CC2)C(=O)Nc2ccccc2)[nH]c2c1C(=O)CC(C)(C)C2 [Example 6-26] | – | < 50 | < 500 | < 50
CCCC[C@H](NC(=O)c1[nH]c2c(c1C)C(=O)CC(C)(C)C2)C(=O)Nc1ccc(OC2CCN(C)CC2)cc1OC [Example 6-30] | – | < 50 | < 500 | < 50
CCCC[C@H](NC(=O)c1[nH]c2c(c1C)C(=O)CC(C)(C)C2)C(=O)Nc1ccc(OC2CCN(C)CC2)cc1 [Example 6-32] | – | < 50 | < 500 | < 50
CCCC[C@H](NC(=O)c1[nH]c2c(c1C)C(=O)CC(C)(C)C2)C(=O)Nc1ccccc1 [Example 6-33] | – | 50 to 500 | ≥ 1000 | ≥ 200
CCCC[C@H](NC(=O)c1[nH]c2c(c1C)C(=O)CC(C)(C)C2)C(=O)NCc1ccc(CN(C)C)cc1 [Example 6-34] | – | < 50 | 500 to 1000 | < 50
COc1ccc(NC(=O)C(CCC2CC2)NC(=O)c2ccc(Nc3ccncc3)cc2)cn1 (stereo not drawn) [Example 6-49] | – | 50 to 500 | < 500 | < 50
COc1ccc(NC(=O)C(CCC2CC2)NC(=O)c2ccc(Nc3ccncc3)cc2C)cn1 (stereo not drawn) [Example 6-51] | – | 50 to 500 | < 500 | < 50
COc1ccc(NC(=O)C(CCC2CC2)NC(=O)c2ccc(CN3CCN(C)CC3)cc2)cn1 (stereo not drawn) [Example 6-52] | – | 50 to 500 | 500 to 1000 | ≥ 200
COc1ccc(NC(=O)C(CCC2CC2)NC(=O)c2ccc(N(C)c3ccncc3)cc2)cn1 (stereo not drawn) [Example 6-55] | – | 50 to 500 | < 500 | < 50
COc1ccc(NC(=O)C(CCC2CC2)NC(=O)c2ccc(Nc3cc(C)nc(C)c3)cc2)cn1 (stereo not drawn) [Example 6-62] | – | 50 to 500 | < 500 | < 50
COc1ccc(NC(=O)[C@H](CCC2CC2)NC(=O)c2ccc(Nc3ccncc3)cc2)cn1 [Example 6-88] | – | < 50 | < 500 | < 50
